Reference: patent US20020045603A1, “Method of inhibiting membrane-type matrix metalloproteinase” (The Research Foundation of State University of New York, priority 1998, published 2002)
“Also recorded” adds a separate entry of the source.

Experiments:
[1] = Solubility in aqueous systems; type: physicochemical
[2] = rat, in vivo, po
MT1-MMP [3] = molecular target: T1, MT1-MMP (Homo sapiens, UniProt P50281); assay: Direct digestion of [3H-methyl]-gelatin by membrane fraction of MT1-MMP-transfected COS-1 cells; type: biochemical; details: 18 hr at 37° C.
Procedure: Confluent MT1-MMP-transfected COS-1 cells (2×10^7 cells) were harvested following treatment with trypsin-EDTA and washed thoroughly. Cells were suspended in 25 mM sucrose, 5 mM MgCl2 in Tris base, pH 7.4, and then subjected to nitrogen (N2) cavitation at 1000 p.s.i. for 30 min at 4° C. Whole cells and nuclei were removed by centrifugation at 770×g for 10 min, and the postnuclear supernatant was centrifuged at 6,000×g for 15 min to remove heavy organelles. The supernatant was centrifuged at 100,000×g for 60 min, and the cell membrane fraction, comprising plasma membranes, Golgi, and ribosomes, was recovered in the pellet. The 100,000×g supernatant was designated as cytosol.
Radiolabeled (^3H) collagen type I was denatured, to unravel the triple helix to produce [^3H-methyl]-gelatin. When separated by SDS-PAGE, and examined by autoradiography, the denatured collagen yields three bands: α(˜100 kDa), β(˜200 kDa), and γ(˜300 kDa), corresponding to the various components of the collagen in the sample. The tritiated gelatin substrate was incubated with a membrane fraction obtained by MT1-MMP-transfected COS-1 cells as described above. The gelatinolytic activity was calculated as % lysis of the α, β, and γ intact gelatin components assessed by laser densitometer scanning of the fluorogram.

MT1-MMP [4] = molecular target: T1, MT1-MMP; assay: Caseinolytic activity of recombinant MT1-MMP, casein zymography; type: biochemical
Procedure: In FIG. 3A, the proteolytic activity of MT1-MMP and its inhibition by a tetracycline compound was assessed using casein zymography: […]

MT1-MMP [5] = molecular target: T1, MT1-MMP; assay: Conversion of pro-gelatinase A to active gelatinase A by recombinant MT1-MMP, SDS-PAGE; type: biochemical
Procedure: The proteolytic activity of MT1-MMP was assessed using gelatinase A zymography. Pure recombinant pro-MMP-2 (72 kDa gelatinase or pro-gelatinase A) and MT1-MMP were co-incubated in the presence or absence of CMT-3 (0.5-3.0 μM). After incubation, the enzyme mixture was examined by SDS-PAGE and the protein (enzyme) bands were stained with Coomassie brilliant blue.

MT1-MMP [6] = molecular target: T1, MT1-MMP; assay: Activation of pro-gelatinase A by MT1-MMP membrane fraction, gelatin zymography; type: biochemical; details: 10, 20, and 50 μM; 18 h at 37° C.
Procedure: Recombinant pro-gelatinase A (72 kDa type IV gelatinase) can be activated to from 62 kDa active gelatinase by MT-MMP-containing plasma membrane fractions. To examine the ability of a tetracycline compound to inhibit this gelatinase activating property of MT-MMP, membrane fractions obtained according to Example 1B were incubated with recombinant human pro-gelatinase A for 18 h at 37° C. with or without CMT-3, and examined by zymography to evaluate enzyme activation.
Specifically, pro-MMP-2 was obtained from the culture-conditioned medium from MMP-2-transfected COS-1 cells.
Conditioned media were collected from the cultures that had been treated with CMT-3 for 2 days. Media were then incubated with SDS-gel electrophoresis sample buffer for 30 min at room temperature, and then analyzed by gel electrophoresis on SDS-polyacrylamide gel (10%) containing gelatin (1 mg/mL; Novex, Inc.). Following electrophoresis, the gels were washed twice with 0.25% TRITON® X-100 for 30 min each (to renature the gelatinase), and incubated for 18-24 hr at 37° C. in a Tris-HCl buffer, pH 7.4 (see, e.g., Lokeshwar 1993). After incubation, the gels were briefly rinsed in distilled water and stained with 0.25% Coomassie brilliant blue R250. The location of gelatinase activity in the gels is visible as a colorless area on an otherwise uniform blue background, indicative of digested gelatin.

[7] = test system: HT-1080 fibrosarcoma cells; assay: Transwell migration of HT-1080 fibrosarcoma cells; type: cell-based, human; details: 18 hr, 10% serum; for inhibition of HT-1080 fibrosarcoma cell migration: 0.5 μM
Excerpt: HT-1080 cells were allowed to migrate in the presence of medium containing 10% serum for 18 hr in Transwell chambers (Costar, Cambridge, Mass.). […] The data are expressed as means of triplicate measurements.

normal cells = assay: Cytotoxicity in normal cells; type: cell-based
[8] = test system: HT-1080 fibrosarcoma cells; assay: Matrigel invasion of HT-1080 fibrosarcoma cells; type: cell-based, human; details: for concentration of maximal inhibition of invasion: 24 hr, 10% serum
Procedure: HT-1080 cells were allowed to invade through Matrigel (Collaborative Research, Bedford, Mass.) for 24 hr in medium containing 10% serum. CMT-3 or CMT-8 were added to the medium to assess their ability to inhibit invasivity of the cells. CMT-3 was tested at final concentrations of 1 μM or 10 μM; CMT-8 was tested twice at a final concentration of 50 μM. The invading cells were counted, and the relative numbers of cells were expressed as means of triplicate measurements.

cell surface integrins = assay: Blocking of cell surface integrins; type: cell-based; details: data not shown
[9] = test system: prostate and melanoma tumor; details: in vivo; Lokeshwar et al. 1998; Seftor et al. 1998; cited from earlier work
Serum half-life = details: in vivo
MG-63 osteosarcoma cells = assay: MMP-2 expression and MT1-MMP-dependent activation of pro-MMP-2, concanavalin A-treated MG-63 cells, zymography; type: cell-based, human
Procedure: MG-63 cells, an osteosarcoma cell line, were grown in culture and treated with 40 μg/mL concanavalin A to induce MT1-MMP-dependent activation of pro-MMP-2. Culture-conditioned medium was collected, as a source of pro-MMP-2, and was incubated in the presence of the membrane fraction of COS-1 cells transfected to express MT1-MMP.

studied cell lines [10] = assay: Cytotoxicity to the cells under the conditions used; type: cell-based; details: data not shown
studied cell lines [11] = assay: Initial attachment and spreading of cells on extracellular matrix or Matrigel substrate; type: cell-based; details: data not shown

## CN(C)C1C(=O)C(C#N)=C(O)C2(O)C(=O)C3=C(O)c4c(O)cccc4C(C)(O)C3CC12 (stereo not shown) [CMT-2, tetracyclinonitrile]
[1]
  solubility in aqueous systems: low solubility
[2]
  blood levels: no detectable blood levels

## NC(=O)C1=C(O)C[C@@H]2C[C@@H]3Cc4cccc(O)c4C(=O)C3=C(O)[C@]2(O)C1=O [CMT-3, 6-demethyl-6-deoxy-4-de(dimethylamino)tetracycline]
MT1-MMP [3]; 5 μM
  inhibition of gelatinolytic activity: 16.3%
MT1-MMP [3]; 10 μM
  inhibition of gelatinolytic activity: 35%
MT1-MMP [3]; 20 μM
  inhibition of gelatinolytic activity: 32%
MT1-MMP [4]
  IC50: 1000 to 3000 nM
MT1-MMP [4]; 0.5, 1.5, and 3.0 μM, 50 ng MT1-MMP, β-casein 52 μM
  inhibition of caseinolytic activity: progressive inhibition of caseinolytic activity by increasing
MT1-MMP [5]; 3.0 μM
  inhibition of the formation of the smaller molecular weight species of gelatinase A: essentially completely inhibits
MT1-MMP [5]; 0.5, 1.0, 1.5 and 3.0 μM, 50 ng recombinant MT1-MMP
  inhibition of the conversion of pro-gelatinase A to active gelatinase A: progressive inhibition
MT1-MMP [6]
  inhibition of MT1-MMP-induced activation of pro-gelatinase A: inhibited
[7]
  inhibition of HT-1080 fibrosarcoma cell migration: clear inhibition; also recorded: Effective inhibition
  concentration of maximal inhibition of migration: 50 µM
Normal cells
  cytotoxicity in normal cells: little or substantially no cytotoxicity
[8]
  prevention of invasion in comparison to CMT-8: slightly more effective
  concentration of maximal inhibition of invasion: 50 µM
Cell surface integrins
  blocking of cell surface integrins: did not block
[9]
  tumor growth and metastasis: suppress prostate and melanoma tumor growth and metastasis
Serum half-life
  serum half-life: approximately 28 hr
MG-63 osteosarcoma cells; 0.5 μM to 3.5 μM
  gelatin-degrading activity of incubated medium: inhibited
  percent of activated MMP-2 in the total expressed MMP-2: decreased in a dose-dependent fashion
MG-63 osteosarcoma cells; 3.0 μM and 3.5 μM
  active MMP-2: no active MMP-2 was detected
Studied cell lines [10]
  cytotoxicity to the cells: not cytotoxic
Studied cell lines [11]
  initial attachment and spreading of studied cell lines: did not prevent

## C[C@H]1c2cccc(O)c2C(O)=C2C(=O)[C@]3(O)C(O)=C(C(N)=O)C(=O)C[C@@H]3[C@@H](O)[C@@H]21 [CMT-8, 6-deoxy-5α-hydroxy-4-de(dimethylamino)tetracycline]
[7]
  inhibition of HT-1080 fibrosarcoma cell migration: clear inhibition; also recorded: Effective inhibition
  concentration of maximal inhibition of migration: 50 µM
[8]
  concentration of maximal inhibition of invasion: 50 µM
Cell surface integrins
  blocking of cell surface integrins: did not block
Studied cell lines [10]
  cytotoxicity to the cells: not cytotoxic
Studied cell lines [11]
  initial attachment and spreading of studied cell lines: did not prevent

## O=C(O)CN(CCN(CC(=O)O)CC(=O)O)CC(=O)O [EDTA, reference compound]
MT1-MMP [4]; 2 mM
  inhibition of caseinolytic activity: did inhibit

## O=S(=O)(F)Cc1ccccc1 [PMSF, reference compound]
MT1-MMP [4]; 0.5 mM
  inhibition of caseinolytic activity: did not inhibit
